{
  "source": "patent US8974768B2",
  "about": "“Azo compounds reducing formation and toxicity of amyloid beta aggregation intermediates” (Max-Delbrueck-Centrum fuer Molekulare Medizin, priority 2010, dated 2015)",
  "key": {"Aβ1-42 peptide": {"biological_target": "Aβ1-42 peptide (Homo sapiens, UniProt P05067)", "sequence (P05067 672-713)": "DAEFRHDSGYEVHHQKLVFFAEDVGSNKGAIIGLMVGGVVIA", "test": "Thioflavin T (Thio T)-assay of Aβ aggregation", "format": "biochemical", "settings": "30 μM Aβ1-42 peptide, 48 h at 37° C., vs DMSO control; read-out: ThioT: IC50"}, "5XFAD mice": {"test_system": "5XFAD mice", "test": "Nest building behaviour in 5XFAD mice", "format": "in vivo, mouse", "experimental": "3a: Nestlet usage; 3b: Nestlet quality score.\nOne hour before the dark phase, mice were housed individually in a cage with wood-chip bedding material. Each mouse was given 3 g of nestlet material made of compressed cotton (Lillico Biotech, UK). The amount of intact, i.e. non-used, nesting material was weighed after 16 hours and nest building was assessed using the following rating scale (Deacon et al., 2006, Tomida et al., 2009): 1, >90% intact; 2, 50-90% intact; 3, 10-50% intact: 4, 0-10% intact, but flat nest; 5, 0-10%, with nests higher than the mice. The amount of intact nesting material was weighed. The data were non-normally distributed.\nNon normally distributed data were analyzed by a Kruskal Wallis test. A post-hoc test using Mann-Whitney tests with Bonferroni corrections was then used for group comparisons.\nNest building is one of several species-typical behavior in mice seen in semi-naturalistic situations. […] Alzheimer's disease in 5XFAD mice will damage these areas, leading to memory impairments in some standard cognitive tests, and to an impairment of species-typical behaviors like nesting.\nThe brain circuitry of wild type mice is intact so they show robust nest building behavior. Transgenic 5XFAD on the other hand have impaired brain circuitry due to the noxious effects of human amyloid-beta protein. They are therefore less able to fulfill this important house-keeping species typical behavior (Deacon R M. (2006): Assessing nest building in mice. Nat Protoc. 2006; 1(3):1117-9; Tomida et al (2009): Usp46 is a quantitative trait gene regulating mouse immobile behavior in the tail suspension and forced swimming tests. Nat Genet. 2009 June; 41(6):688-95. Epub 2009 May 24.)."}, "in vitro": {"test": "in vitro", "settings": "human"}, "Tg2576 mice": {"test_system": "Tg2576 mice", "test": "Contextual fear conditioning in Tg2576 mice", "format": "in vivo, mouse", "settings": "9-month-old Tg2576 mice, feeding pellets for 12 weeks", "experimental": "Groups of Tg2576 mice overexpressing the 695-amino acid isoform of human amyloid precursor protein containing a Lys670→Asn, Met671→Leu mutation (Hsiao, K. Science 1996) and wildtype control mice (13-21 per phenotype) were conditioned on day 1 by placing a subject mouse in a contextual fear conditioning chamber (Med Associates, […], Vt.). Exploration was allowed for 2 min, and an auditory cue was presented for 15 s accompanied by an electrical foot shock during the last 2 s. This procedure was repeated and mice were removed from the chamber after 30 s. Twenty hours later, mice were returned to the chamber in which conditioning occured, and their freezing behaviour (fear) was monitored. Freezing was defined as the lack of all movements, except those required for breathing (Comery, T. A., et al. Journal of Neuroscience, 2005). Data were analysed by two-way ANOVA in the S programming environment, followed by Fischer's least significant difference (LSD) pairwise comparison of group means at the p<0.05 significance level.\nThe contextual fear conditioning paradigm is a form of Pavlovian learning in which an association is made between stimuli and their aversive consequences. Studies of brain function implicate the amygdala in regulating fear, and the hippocampus in regulating the learning of the context in which a fearful event occurred.\nThe brain circuitry in wild type mice is intact and they are better able to associate an aversive foot shock with the context or environment in which the shock took place. They therefore show more freezing. Transgenic Alzheimer mice have compromised brain circuitry due to the toxic effects of amyloid-beta protein. They are therefore less able to associate an aversive shock with a context and show less freezing.\nA substance that reverses the toxic effects of amyloid-beta in Alzheimer's mice will help in reconsolidating the impaired brain circuitry so that these mice begin to show more fear (freezing behavior) after treatment. This paradigm is therefore a robust method for showing the effect of drug candidate molecules in Alzheimer mice."}, "[1]": {"test": "Detection of compounds in brain after in vivo administration"}, "[2]": {"settings": "transgenic and wild-type mice vs control mice"}},
  "data": [
    {"smiles": "O=[N+]([O-])c1ccc(N=Nc2ccc(Nc3ccccc3)cc2)cc1", "note": "[Compound 2, 4-((4-nitrophenyl)diazenyl)-N-phenylaniline]", "values": [
      {"measurement": "IC50", "setting": "Aβ1-42 peptide", "value": 1700, "unit": "nM"},
      {"measurement": "Nest building behavior", "setting": "5XFAD mice; 5XFAD mice, pelleted mouse chow for 8.5 months", "value": "improved"},
      {"measurement": "Nest building behavior in transgenic mice", "setting": "5XFAD mice; transgenic 5XFAD mice, higher concentration (625 mg/kg feed) vs control mice", "value": "significantly enhanced"},
      {"measurement": "Nest building behavior (nestlet usage, FIG. 3a)", "setting": "5XFAD mice; [2]", "value": "increased"},
      {"measurement": "Nestlet quality score (FIG. 3b)", "setting": "5XFAD mice; [2]", "value": "increases"},
      {"measurement": "IC50 at 48 h", "setting": "in vitro", "value": "> 100000", "unit": "nM"},
      {"measurement": "Contextual memory (freezing behaviour)", "setting": "Tg2576 mice", "value": "improvement"},
      {"measurement": "Detection in brain after i.v. administration", "setting": "[1]; B6C3 mouse, 5 mg/kg body weight i.v. once, brain samples", "value": "++"},
      {"measurement": "Detection in brain after oral administration, feeding pellet preparation", "setting": "[1]; mouse, brain samples after one week feeding", "value": "++^a), b)"},
      {"measurement": "Detection in brain after oral administration, oral gavage administration", "setting": "[1]; mouse, five to seven doses over two or three days, sampling 30 min. after last application", "value": "++^a), b)"}
    ]}
  ]
}
